In patent US20110059947A1, “ALPHA 7 NICOTINIC AGONISTS AND ANTIPSYCHOTICS” (Targacept, Inc., priority 2008, published 2011):
Where “and” joins values, the source holds several entries; their conditions need not be identical. Identical values can stand only once.

Assays:
human muscle receptors = biological target: T1, human muscle receptors (Homo sapiens, UniProt P02708+P07510+Q07001); assay: Muscle function (Ca++ flux), TE-671 cells; type: cell-based; settings: human TE-671 cells, % of nicotine's Emax
T1 construct: expressed in appropriate rat and human cell lines; endogenous in cells

rat ganglion receptors = assay: Ganglion function (Ca++ flux), PC-12 Shooter cells; type: cell-based; settings: rat PC-12 Shooter cells, % of nicotine's Emax
sigma site 2 = biological target: T2, sigma site 2 (Homo sapiens, UniProt Q5BJF2); assay: Sigma site 2 binding (Novascreen)
T2 construct: Novascreen

rats = assay: Novel object recognition (NOR) in rats; type: in vivo, rat
Excerpt: The object recognition model is based on a rodent's spontaneous tendency to explore novel aspects of their environment and this exploratory activity can be an index for memory function (Ennaceur and Delacour, 1988). The NOR test measures the capacity to recognize an object presented on two occasions, some time apart. The test arena consisted of a 17.5×17.5″ clear Plexiglas™ with walls 12″ in height. The arena was enclosed in an opaque, sound-attenuating chamber and the doors (opening to the front side) remained open. […] On the first two days of this sub-acute dosing paradigm, administrations were followed 30 minutes later by an exploratory (habituation) trial (6 minutes) on Day 1 (no objects) and object recognition acquisition trial (3 minutes) on Day 2 (2 of the same objects). On the third day the final OR trial, or recall trial (3 minutes; one familiar, one novel object) was started at either 30 min, 2 h, 6 h, 18 h or 24 h after compound administration. For the recall trial, a video camera was positioned approximately 36″ from the unshielded side of the arena for videotaping of the animals' behaviors. These behaviors were subsequently hand-scored by a blinded observer assessing the time spent exploring a novel (object B) versus a familiar (object A) object during this recall exposure trial. Absolute exploration time for each object was recorded, and a % recognition index was calculated as follows: % RI=[(time investigating novel object)/(total time investigating both novel+familiar objects)] […] Where significant overall effects were found, post-hoc analyses were performed. P<0.05 was considered significant.

5HT3 receptors [1] = biological target: T3, 5HT3 receptors (Homo sapiens, UniProt P46098); assay: Functional activation at the human 5HT3 receptor; type: cell-based; settings: read-out: maximal response, functional activation of human 5HT3 receptor
T3 sequence (P46098 24-478): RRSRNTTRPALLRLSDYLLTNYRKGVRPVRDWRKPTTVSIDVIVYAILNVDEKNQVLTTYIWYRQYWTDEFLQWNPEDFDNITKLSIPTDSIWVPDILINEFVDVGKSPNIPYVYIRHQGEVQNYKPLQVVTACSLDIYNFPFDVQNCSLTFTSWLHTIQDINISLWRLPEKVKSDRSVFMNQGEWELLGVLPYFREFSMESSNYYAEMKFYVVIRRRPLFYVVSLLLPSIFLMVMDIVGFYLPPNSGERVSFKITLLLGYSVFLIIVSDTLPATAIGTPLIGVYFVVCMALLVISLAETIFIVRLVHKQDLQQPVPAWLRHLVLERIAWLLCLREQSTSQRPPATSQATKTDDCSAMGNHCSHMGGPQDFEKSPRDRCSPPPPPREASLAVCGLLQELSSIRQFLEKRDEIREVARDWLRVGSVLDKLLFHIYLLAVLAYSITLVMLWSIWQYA

opioid receptor = settings: read-out: Ki opioid site; dose-response assessment
human α4β2 receptors = biological target: T4, human α4β2 receptors (Homo sapiens, UniProt P17787+P43681); assay: [3H]-(S)-nicotine competition binding in SH-EP1 cellular membranes; settings: SH-EP1 cells
T4 construct: expressed in transfected cells; host or cells: SH-EP1

Sprague-Dawley rats = assay: Apomorphine-induced impairment of pre-pulse inhibition; type: in vivo, rat; settings: Compound A 0.3 mg/kg s.c., apomorphine 1.0 mg/kg s.c., p<0.001
5HT3 receptors [2] = biological target: T3, 5HT3 receptors; assay: 5HT3 receptor radioligand binding, human receptor; settings: 10 μM
th(tk-)/th(tk-) mice = assay: Prepulse inhibition (PPI) and acoustic startle in th(tk-)/th(tk-) and control mice; type: in vivo
[3] = test system: non-nicotinic receptor classes; assay: Broad receptor selectivity battery (Novascreen); settings: criterion: inhibition of receptor-selective ligand binding >50% at 10 μM
human α4β2 sub-type = biological target: T5, human α4β2 sub-type (Homo sapiens, UniProt P17787+P43681); assay: Functional activation in Xenopus oocytes (electrophysiology); type: cell-based
T5 construct: expressed in transfected cells; host or cells: Xenopus oocytes

5HT3 receptors [4] = biological target: T6, 5HT3 receptors (Mus musculus, UniProt P23979); assay: 5HT3 receptor radioligand binding, mouse receptor; settings: 10 μM
T6 sequence (P23979 24-489): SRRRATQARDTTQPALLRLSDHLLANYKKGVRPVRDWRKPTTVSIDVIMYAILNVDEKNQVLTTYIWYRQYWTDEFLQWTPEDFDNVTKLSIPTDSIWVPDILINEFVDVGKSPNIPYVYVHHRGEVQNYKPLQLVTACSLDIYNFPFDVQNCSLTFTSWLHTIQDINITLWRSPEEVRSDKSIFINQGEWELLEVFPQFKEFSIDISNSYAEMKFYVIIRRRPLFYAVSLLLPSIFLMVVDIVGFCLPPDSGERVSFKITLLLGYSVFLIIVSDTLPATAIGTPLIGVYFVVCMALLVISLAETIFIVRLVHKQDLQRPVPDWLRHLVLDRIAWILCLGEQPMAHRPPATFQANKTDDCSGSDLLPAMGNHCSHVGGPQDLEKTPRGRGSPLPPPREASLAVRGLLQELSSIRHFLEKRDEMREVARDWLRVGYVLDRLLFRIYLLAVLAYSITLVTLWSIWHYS

human ganglion receptors = assay: Ganglion function (Ca++ flux), SH-SY5Y cells; type: cell-based; settings: % of nicotine's Emax

Compound: O=C(N[C@@H]1C2CCN(CC2)[C@H]1Cc1cccnc1)c1cc2ccccc2o1 [Compound A, (2S,3R)—N-(2-((3-pyridinyl)methyl)-1-azabicyclo[2.2.2]oct-3-yl)benzofuran-2-carboxamide]
- Muscle Function (Ca++ flux) % nicotine @ 10 uM (human muscle receptors; 10 uM): 5 % nicotine and 5 ± 2 % nicotine
- Muscle Function (Ca++ flux) % nicotine @ 100 uM (human muscle receptors; 100 uM): 12 % nicotine and 12 ± 7 % nicotine
- Ganglion Function (Ca++ flux) % nicotine @ 10 uM (rat ganglion receptors; 10 uM): 11 % nicotine and 11 ± 6 % nicotine
- Ganglion Function (Ca++ flux) % nicotine @ 100 uM (rat ganglion receptors; 100 uM): 20 % nicotine and 20 ± 8 % nicotine
- inhibition of ligand binding, sigma site 2 (sigma site 2; 10 μM): 79 % inhibition
- Ki (sigma site 2; dose-response assessment): 13 µM
- time investigating novel versus familiar object (rats; rats, 0.3 mg/kg, 30 min, 2 h, 6 h and 18 h after final sub-acute (q.d. x3 days) administration): significantly more time investigating the novel object than the familiar object
- time spent investigating the novel object (rats; rats, 0.3, 1 and 10 mg/kg p.o., 30 minutes after 3rd q.d. administration): significantly increased the time spent investigating the novel object
- duration of working memory facilitation after third sub-acute daily administration (rats; young rats, 0.3 mg/kg): up to 18 hours
- Emax at 100 µM (5HT3 receptors [1]): 15%
- Ki (opioid receptor): 13 µM
- Ki (human α4β2 receptors): 2.8 µM
- PPI deficits induced by apomorphine (Sprague-Dawley rats): significantly reversed PPI deficits
- inhibition of radioligand binding at 5HT3, human receptor (5HT3 receptors [2]): 25 % inhibition
- PPI or startle (th(tk-)/th(tk-) mice; Compound A 0.1 mg/kg given individually): little effect
- PPI (th(tk-)/th(tk-) mice; control (wild type) mice, Compound A): no effect on control
- startle response (th(tk-)/th(tk-) mice; th(tk-)/th(tk-) mice, Compound A): normalizes startle response
- deficits in PPI (th(tk-)/th(tk-) mice; th(tk-)/th(tk-) mice, Compound A (0.1 and 0.3 mg/kg analyzed)): reverse deficits in PPI
- PPI, main effect (th(tk-)/th(tk-) mice; transgenic th(tk-)/th(tk-) mice, Compound A 0.1 mg/kg alone): no significant main effect
- interactions with other non-nicotinic receptor classes [3]: minimal interactions
- activation of human α4β2 (human α4β2 sub-type): no detectable activation
- decreases in subsequent control responses to ACh (α4β2) (human α4β2 sub-type): no significant decreases
- inhibition of radioligand binding at 5HT3, mouse receptor (5HT3 receptors [4]): 59 % inhibition
- Ganglion Function (Ca++ flux) % nicotine @ 10 uM (human ganglion receptors; 10 uM): 6 % nicotine and 6 ± 2 % nicotine
- Ganglion Function (Ca++ flux) % nicotine @ 100 uM (human ganglion receptors; 100 uM): 11 % nicotine and 11 ± 1 % nicotine
